Source: US12558428B2, “Heterobifunctional compounds and their use in treating disease” (Halda Therapeutics OpCo, Inc., priority 2024, dated 2026)

Columns and labels:
Type in all cases: cell-based
[1] = test system: T-Rex 293 cells lacking increased expression of estrogen receptor alpha protein; assay: Cellular growth inhibition assay, T-Rex 293 cells, (−) doxycycline; details: T-REx-293, 72 h, Table 7-A; T-Rex 293 cells without doxycycline (lacking increased ERα expression); 72 hours; CellTiter-Glo; read-out: (−) Dox GI50
Method in brief: (§1)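 Viability read-out was CellTiter-Glo 2.0 luminescence after 72 h compound exposure, normalized to zero luminescence and fitted by four-parameter regression to give GI50. Cells were an ERα-inducible T-Rex 293 clone cultured with or without 3 ng/mL doxycycline in charcoal-stripped, phenol red-free medium.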

[2] = test system: T-Rex 293 cells having increased expression of estrogen receptor alpha protein; assay: Cellular growth inhibition assay, T-Rex 293 cells, (+) doxycycline; details: T-REx-293, 72 h, Table 7-A; T-Rex 293 cells with doxycycline (increased ERα expression); 72 hours; CellTiter-Glo; read-out: (+) Dox GI50
Method in brief: as §1

[3] = test system: MCF7 cells (ATCC #HTB-22); assay: Cellular growth inhibition assay, MCF7 cells purchased from ATCC; details: Homo sapiens, MCF7, 144 h, Table 8-A; MCF7 cells purchased from ATCC; six days; CellTiter-Glo; read-out: GI50
Method in brief: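 MCF7 cells in RPMI 1640 with 10% FBS and 0.2 U/ml insulin, seeded at 1,500 cells/well (ATCC) or 225 cells/well (ECACC). Compounds added 24 h later, then 6 days at 37° C. Viability by CellTiter-Glo 2.0 luminescence. GI50 from four-parameter fit.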

Cc1sc2c(c1C)C(c1ccc(NCCN3CCN(CCOc4ccc([C@@H]5c6ccc(O)cc6CC[C@@H]5c5ccccc5)cc4)CC3)cc1)=N[C@@H](Cc1ncco1)c1nnc(C)n1-2 [III-103]
GI50 [1]: 50 to 500 nM
GI50 [2]: < 50 nM
GI50 [3]: < 50 nM

Cc1sc2c(c1C)C(c1ccc(NCCN3CCN(CCOc4ccc([C@H]5c6ccc(O)cc6CC[C@H]5c5ccccc5)cc4)CC3)cc1)=N[C@@H](Cc1ncco1)c1nnc(C)n1-2 [III-104]
GI50 [1]: 50 to 500 nM
GI50 [2]: < 50 nM
GI50 [3]: < 50 nM

Cc1sc2c(c1C)C(c1ccc(N3CCC(N4CCN(CCOc5ccc([C@@H]6c7ccc(O)cc7CC[C@@H]6c6ccccc6)cc5)CC4)CC3)cc1)=N[C@@H](Cc1ncco1)c1nnc(C)n1-2 [III-105]
GI50 [1]: 50 to 500 nM
GI50 [2]: < 50 nM
GI50 [3]: < 50 nM

Cc1sc2c(c1C)C(c1ccc(N3CC(CN4CCC(COc5ccc([C@@H]6c7ccc(O)cc7CC[C@@H]6c6ccccc6)cc5)CC4)C3)cc1)=N[C@@H](C)c1nnc(C)n1-2 [III-106]
GI50 [1]: 500 to 2500 nM
GI50 [2]: < 50 nM
GI50 [3]: 50 to 500 nM

Cc1sc2c(c1C)C(c1ccc(CN3CC4(CCN(c5ccc([C@@H]6c7ccc(O)cc7CC[C@@H]6c6ccccc6)cc5)CC4)C3)cc1)=N[C@@H](C)c1nnc(C)n1-2 [III-107]
GI50 [1]: 500 to 2500 nM
GI50 [2]: 50 to 500 nM
GI50 [3]: 50 to 500 nM

Cc1sc2c(c1C)C(c1ccc(N3CCC4(CC3)CN(CC3CN(c5ccc([C@@H]6c7ccc(O)cc7CC[C@@H]6c6ccccc6)cc5)C3)C4)cc1)=N[C@@H](C)c1nnc(C)n1-2 [III-108]
GI50 [1]: 50 to 500 nM
GI50 [2]: < 50 nM
GI50 [3]: < 50 nM

Cc1sc2c(c1C)C(c1ccc(OCCN3CCN(CCOc4ccc([C@@H]5c6ccc(O)cc6CC[C@@H]5c5ccccc5)cc4)CC3)cc1)=N[C@@H](Cc1ncco1)c1nnc(C)n1-2 [III-109]
GI50 [1]: 50 to 500 nM
GI50 [2]: < 50 nM
GI50 [3]: 50 to 500 nM

Cc1sc2c(c1C)C(c1ccc(OCCN3CCN(CCOc4ccc([C@H]5c6ccc(O)cc6CC[C@H]5c5ccccc5)cc4)CC3)cc1)=N[C@@H](Cc1ncco1)c1nnc(C)n1-2 [III-110]
GI50 [1]: < 50 nM
GI50 [2]: < 50 nM
GI50 [3]: < 50 nM

Cc1sc2c(c1C)C(c1ccc(OCC3CCN(CCOc4ccc([C@@H]5c6ccc(O)cc6CC[C@@H]5c5ccccc5)cc4)CC3)cc1)=N[C@@H](Cc1ncco1)c1nnc(C)n1-2 [III-111]
GI50 [1]: 50 to 500 nM
GI50 [2]: < 50 nM
GI50 [3]: 50 to 500 nM

Cc1sc2c(c1C)C(c1ccc(OCC3CCN(CCOc4ccc([C@H]5c6ccc(O)cc6CC[C@H]5c5ccccc5)cc4)CC3)cc1)=N[C@@H](Cc1ncco1)c1nnc(C)n1-2 [III-112]
GI50 [1]: 50 to 500 nM
GI50 [2]: 50 to 500 nM
GI50 [3]: 50 to 500 nM

Cc1sc2c(c1C)C(c1ccc(N3CC(N4CCN(CCOc5ccc([C@@H]6c7ccc(O)cc7CC[C@@H]6c6ccccc6)cc5)CC4)C3)cc1)=N[C@@H](Cc1ncco1)c1nnc(C)n1-2 [III-113]
GI50 [1]: 50 to 500 nM
GI50 [2]: < 50 nM
GI50 [3]: < 50 nM

Cc1sc2c(c1C)C(c1ccc(N3CC(N4CCN(CCOc5ccc([C@H]6c7ccc(O)cc7CC[C@H]6c6ccccc6)cc5)CC4)C3)cc1)=N[C@@H](Cc1ncco1)c1nnc(C)n1-2 [III-114]
GI50 [1]: 50 to 500 nM
GI50 [2]: < 50 nM
GI50 [3]: 50 to 500 nM

Cc1sc2c(c1C)C(c1ccc(CN3CCC4(CC3)CCN(c3ccc([C@@H]5c6ccc(O)cc6CC[C@@H]5c5ccccc5)cc3)CC4)cc1)=N[C@@H](C)c1nnc(C)n1-2 [III-115]
GI50 [1]: 500 to 2500 nM
GI50 [2]: 50 to 500 nM
GI50 [3]: 50 to 500 nM

Cc1sc2c(c1C)C(c1ccc(N3CCC4(CC3)CCN(c3ccc([C@@H]5c6ccc(O)cc6CC[C@@H]5c5ccccc5)cc3)CC4)cc1)=N[C@@H](C)c1nnc(C)n1-2 [III-116]
GI50 [1]: > 2500 nM
GI50 [2]: > 2500 nM
GI50 [3]: 500 to 2500 nM

Cc1sc2c(c1C)C(c1ccc(N3CCC4(CC3)CCN(c3ccc([C@@H]5c6ccc(O)cc6CC[C@@H]5c5ccccc5)cc3)C4)cc1)=N[C@@H](C)c1nnc(C)n1-2 [III-117]
GI50 [1]: 500 to 2500 nM
GI50 [2]: 500 to 2500 nM
GI50 [3]: 50 to 500 nM

Cc1sc2c(c1C)C(c1ccc(N3CCC(O)(CN4CCN(c5ccc([C@@H]6c7ccc(O)cc7CC[C@@H]6c6ccccc6)cc5)CC4)CC3)cc1)=N[C@@H](C)c1nnc(C)n1-2 [III-118]
GI50 [1]: 500 to 2500 nM
GI50 [2]: < 50 nM
GI50 [3]: 50 to 500 nM

Cc1sc2c(c1C)C(c1ccc(N3CCC(C(=O)N4CCN(c5ccc([C@@H]6c7ccc(O)cc7CC[C@@H]6c6ccccc6)cc5)CC4)CC3)cc1)=N[C@@H](C)c1nnc(C)n1-2 [III-119]
GI50 [1]: 500 to 2500 nM
GI50 [2]: 50 to 500 nM
GI50 [3]: 50 to 500 nM

Cc1sc2c(c1C)C(c1ccc(N3CCC4(CCN(c5ccc([C@@H]6c7ccc(O)cc7CC[C@@H]6c6ccccc6)cc5)CC4)C3)cc1)=N[C@@H](C)c1nnc(C)n1-2 [III-120]
GI50 [1]: 500 to 2500 nM
GI50 [2]: > 2500 nM
GI50 [3]: 50 to 500 nM

COC1(CN2CCN(c3ccc([C@@H]4c5ccc(O)cc5CC[C@@H]4c4ccccc4)cc3)CC2)CCN(c2ccc(C3=N[C@@H](C)c4nnc(C)n4-c4sc(C)c(C)c43)cc2)CC1 [III-121]
GI50 [1]: > 2500 nM
GI50 [2]: 500 to 2500 nM
GI50 [3]: 500 to 2500 nM

Cc1sc2c(c1C)C(c1ccc(N3CCN(CC4CCN(c5ncc([C@H]6c7ccc(O)cc7CC[C@H]6c6ccccc6)cn5)CC4)CC3)cc1)=N[C@@H](C)c1nnc(C)n1-2 [III-122]
GI50 [1]: > 2500 nM
GI50 [2]: 500 to 2500 nM
GI50 [3]: 500 to 2500 nM

Cc1sc2c(c1C)C(c1ccc(N3CCN(CC4CCN(c5ncc([C@@H]6c7ccc(O)cc7CC[C@@H]6c6ccccc6)cn5)CC4)CC3)cc1)=N[C@@H](C)c1nnc(C)n1-2 [III-123]
GI50 [1]: 500 to 2500 nM
GI50 [2]: < 50 nM
GI50 [3]: 50 to 500 nM

Cc1sc2c(c1C)C(c1ccc(N3CC(N4CCN(Cc5ccc([C@@H]6c7ccc(O)cc7CC[C@@H]6c6ccccc6)cc5)CC4)C3)cc1)=N[C@@H](Cc1ncco1)c1nnc(C)n1-2 [III-124]
GI50 [1]: 500 to 2500 nM
GI50 [2]: 50 to 500 nM
GI50 [3]: 50 to 500 nM

Cc1sc2c(c1C)C(c1ccc(N3CCC(CN4CCN(c5ccc([C@H]6c7ccc(O)cc7CC[C@H]6c6ccccc6)cn5)CC4)CC3)cc1)=N[C@@H](Cc1ncco1)c1nnc(C)n1-2 [III-125]
GI50 [1]: 50 to 500 nM
GI50 [2]: < 50 nM
GI50 [3]: 50 to 500 nM

Cc1sc2c(c1C)C(c1ccc(N3CCC(CN4CCN(c5ccc([C@@H]6c7ccc(O)cc7CC[C@@H]6c6ccccc6)cn5)CC4)CC3)cc1)=N[C@@H](Cc1ncco1)c1nnc(C)n1-2 [III-126]
GI50 [1]: 50 to 500 nM
GI50 [2]: < 50 nM
GI50 [3]: 50 to 500 nM

Cc1sc2c(c1C)C(c1ccc(N3CCN(CC4CCN(c5ncc([C@H]6c7ccc(O)cc7CC[C@H]6c6ccccc6)cn5)CC4)CC3)cc1)=N[C@@H](Cc1ncco1)c1nnc(C)n1-2 [III-127]
GI50 [1]: 500 to 2500 nM
GI50 [2]: 50 to 500 nM
GI50 [3]: 50 to 500 nM

Cc1sc2c(c1C)C(c1ccc(N3CCN(CC4CCN(c5ncc([C@@H]6c7ccc(O)cc7CC[C@@H]6c6ccccc6)cn5)CC4)CC3)cc1)=N[C@@H](Cc1ncco1)c1nnc(C)n1-2 [III-128]
GI50 [1]: 50 to 500 nM
GI50 [2]: < 50 nM
GI50 [3]: 50 to 500 nM

Cc1sc2c(c1C)C(c1ccc(N3CCC4(CCN(Cc5ccc([C@@H]6c7ccc(O)cc7CC[C@@H]6c6ccccc6)cc5)CC4)CC3)cc1)=N[C@@H](C)c1nnc(C)n1-2 [III-129]
GI50 [1]: 500 to 2500 nM
GI50 [2]: 50 to 500 nM
GI50 [3]: 50 to 500 nM

COC1(CN2CCC(c3ccc([C@@H]4c5ccc(O)cc5CC[C@@H]4c4ccccc4)cc3)CC2)CCN(c2ccc(C3=N[C@@H](C)c4nnc(C)n4-c4sc(C)c(C)c43)cc2)CC1 [III-130]
GI50 [1]: 500 to 2500 nM
GI50 [2]: 50 to 500 nM
GI50 [3]: 50 to 500 nM

Cc1sc2c(c1C)C(c1ccc(N3CC(CC4CCN(CC5CN(c6ccc([C@@H]7c8ccc(O)cc8CC[C@@H]7c7ccccc7)cc6)C5)CC4)C3)cc1)=N[C@@H](C)c1nnc(C)n1-2 [III-131]
GI50 [1]: 500 to 2500 nM
GI50 [2]: < 50 nM
GI50 [3]: 50 to 500 nM

Cc1sc2c(c1C)C(c1ccc(N3CCC(CN4CCC(c5ccc([C@@H]6c7ccc(O)cc7CC[C@@H]6c6ccccc6)cc5)CC4)CC3)cc1)=N[C@@H](C)c1nnc(C)n1-2 [III-132]
GI50 [1]: 500 to 2500 nM
GI50 [2]: 50 to 500 nM
GI50 [3]: 50 to 500 nM

Cc1sc2c(c1C)C(c1ccc(N3CC(CN4CCC(CC5CN(c6ccc([C@@H]7c8ccc(O)cc8CC[C@@H]7c7ccccc7)cc6)C5)CC4)C3)cc1)=N[C@@H](C)c1nnc(C)n1-2 [III-133]
GI50 [1]: 50 to 500 nM
GI50 [2]: < 50 nM
GI50 [3]: 50 to 500 nM

Cc1sc2c(c1C)C(c1ccc(N3CC(C(=O)N4CCC(CC5CN(c6ccc([C@@H]7c8ccc(O)cc8CC[C@@H]7c7ccccc7)cc6)C5)CC4)C3)cc1)=N[C@@H](C)c1nnc(C)n1-2 [III-134]
GI50 [1]: 50 to 500 nM
GI50 [2]: < 50 nM
GI50 [3]: < 50 nM

Cc1sc2c(c1C)C(c1ccc(N3CC(CC4CCN(C(=O)C5CN(c6ccc([C@@H]7c8ccc(O)cc8CC[C@@H]7c7ccccc7)cc6)C5)CC4)C3)cc1)=N[C@@H](C)c1nnc(C)n1-2 [III-135]
GI50 [1]: 500 to 2500 nM
GI50 [2]: < 50 nM
GI50 [3]: < 50 nM

Cc1sc2c(c1C)C(c1ccc(N3CC(CN4CCN(CC5CN(c6ccc([C@H]7c8ccc(O)cc8CC[C@H]7c7ccccc7)cc6)C5)CC4)C3)cc1)=N[C@H](C)c1nnc(C)n1-2 [III-136]
GI50 [1]: > 2500 nM
GI50 [2]: > 2500 nM
GI50 [3]: > 2500 nM

Cc1sc2c(c1C)C(c1ccc(CC(=O)N3CCC4(CCN(c5ccc([C@@H]6c7ccc(O)cc7CC[C@@H]6c6ccccc6)cc5)CC4)C3)cc1)=N[C@@H](C)c1nnc(C)n1-2 [III-137]
GI50 [1]: 500 to 2500 nM
GI50 [2]: 500 to 2500 nM
GI50 [3]: 50 to 500 nM
